Key:
UGT1A10 = molecular target: T1, UGT1A10 (Homo sapiens, UniProt Q9HAW8); test: Inhibition of recombinant UGT-catalyzed 4-MU glucuronidation; assay type: biochemical; conditions: pH 7.4, probe 4-methylumbelliferone (4-MU), 30 μM, 100 μM compound, 4-MU probe substrate, negative = activation
T1 construct: purchased BD Gentest Corp. (Woburn, MA, USA); host or cells: baculovirus-infected insect cells
T1 sequence (Q9HAW8 26-530): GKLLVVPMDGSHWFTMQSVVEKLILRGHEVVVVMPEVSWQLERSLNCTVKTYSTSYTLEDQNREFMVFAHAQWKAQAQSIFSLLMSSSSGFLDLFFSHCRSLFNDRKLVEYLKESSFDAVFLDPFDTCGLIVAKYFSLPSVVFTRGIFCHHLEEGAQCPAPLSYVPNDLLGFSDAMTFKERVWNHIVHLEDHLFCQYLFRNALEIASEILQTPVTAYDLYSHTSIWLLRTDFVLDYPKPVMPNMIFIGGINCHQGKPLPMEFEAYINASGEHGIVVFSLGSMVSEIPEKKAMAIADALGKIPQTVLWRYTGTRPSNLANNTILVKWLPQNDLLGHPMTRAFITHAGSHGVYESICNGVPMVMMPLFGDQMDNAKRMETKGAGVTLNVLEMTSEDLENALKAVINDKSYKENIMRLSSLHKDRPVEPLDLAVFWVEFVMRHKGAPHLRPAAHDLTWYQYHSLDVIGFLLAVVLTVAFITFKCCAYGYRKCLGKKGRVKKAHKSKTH
Experimental: (§1) Sigma-Aldrich (St Louis, MO, USA) provided the following constituents in the incubation mixture: 4-methylumbelliferone (4-MU), 4-methylumbelliferone-β-D-glucuronide (4-MUG), Tris-HCl, 7-hydroxycoumarin, and uridine-diphosphoglucuronic acid (UDPGA) (trisodium salt). All other compounds were of high-performance liquid chromatography (HPLC) grade or of the highest grade commercially available. For enzyme sources, recombinant UGT isoforms expressed in baculovirus-infected insect cells were purchased from BD Gentest Corp. (Woburn, MA, USA), including UGT1A1, 1A3, 1A6, 1A7, 1A8, 1A9, 1A10, 2B4, 2B7, 2B15, and 2B17.
(§2) 4-MU, a nonspecific probe substrate for all the UGT isoforms, was employed to investigate the inhibition of MEF and NIR towards the activity of UGT isoforms. The incubation and analytical methods have been previously described. […] MEF and NIR were dissolved in the DMSO to make a stock solution of 20 mM, and various concentrations of working solutions were prepared through dilution with DMSO. 4-MU was used as a non-selective substrate of UGTs. There was a 5-min pre-incubation step at 37 °C before the reaction was initiated by the addition of UDPGA. 4-MU and inhibitors were previously dissolved in DMSO, and the total concentration of DMSO was 1%. The reactions were continued at 37 °C for 120 min for UGT1A1, UGT1A3, UGT1A10, UGT2B4, UGT2B7, UGT2B15 and UGT2B17, 30 min for UGT1A6, UGT1A7, UGT1A8, and UGT1A9, respectively. Reactions were terminated by the addition of 100 μL acetonitrile with 7-hydroxycoumarin (100 μM) as internal standard. The incubation mixtures were then centrifuged at 12,000 r/min for 10 min. 2 μL supernatant was injected into the UPLC system for analysis. An ACQUITY UPLC System (Waters, Milford, MA, USA) equipped with UV detector was used to analyze the samples, and the separation of all the compounds were carried out using a ACQUITY UPLC® BEH C18 (2.1 × 100 mm, 1.7 μm Waters) at a flow rate of 0.2 mL/min and UV detector at 316 nm. The mobile phase was consisted of ultrapure water containing 0.5% formic acid (A) and acetonitrile (B). The following gradient condition was used: 0–3.5 min, 10–65% B; 3.5–4.0 min, 65% B; 4.0–9.0 min, 10% B. To calculate the standard curve 0.1–100 μM of 4-MUG was used through drawing the peak area ration of 4-MUG/internal standard towards the concentration range of 4-MUG. The curve was linear over this concentration range, with an r^2 value > 0.99.
(§3) The inhibition type and Kinetics were determined for the inhibition of NTR towards UGT1A3, UGT1A7 and UGT1A9. The glucuronidation velocity of 4-MU was determined at multiple concentrations of 4-MU and NTR. Dixon and Lineweaver–Burk plots were employed to determine the inhibition type, and the second plot of the slopes from the Lineweaver–Burk plot versus the compound concentrations was utilized to calculate the Ki value. The determination of IC50 was calculated using Probit analysis in SPSS11.5 (SPSS, Chicago, IL, USA). The Student’s t-test was adopted at a significance level of p < 0.05 to determine statistically significant differences among experimental groups.

UGT1A1 = molecular target: T2, UGT1A1 (Homo sapiens, UniProt P22309); test: as above; assay type: biochemical; conditions: pH 7.4, probe 4-methylumbelliferone (4-MU), 110 μM, 100 μM compound, 4-MU probe substrate, negative = activation
T2 construct: purchased BD Gentest Corp. (Woburn, MA, USA); host or cells: baculovirus-infected insect cells
T2 sequence (P22309 26-533): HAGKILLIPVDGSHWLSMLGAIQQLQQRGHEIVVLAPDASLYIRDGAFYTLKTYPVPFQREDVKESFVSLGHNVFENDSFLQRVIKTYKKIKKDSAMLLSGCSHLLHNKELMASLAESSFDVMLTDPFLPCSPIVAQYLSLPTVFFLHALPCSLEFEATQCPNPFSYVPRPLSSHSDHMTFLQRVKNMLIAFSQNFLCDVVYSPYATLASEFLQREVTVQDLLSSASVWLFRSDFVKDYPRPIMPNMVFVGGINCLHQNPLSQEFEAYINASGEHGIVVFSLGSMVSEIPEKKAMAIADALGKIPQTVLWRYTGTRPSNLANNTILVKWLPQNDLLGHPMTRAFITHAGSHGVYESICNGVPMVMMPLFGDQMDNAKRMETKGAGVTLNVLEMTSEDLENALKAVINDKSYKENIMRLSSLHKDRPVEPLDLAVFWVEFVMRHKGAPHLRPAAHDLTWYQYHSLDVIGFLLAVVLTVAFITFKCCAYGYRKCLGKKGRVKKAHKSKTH
Experimental: as §1, §2, §3

inhibition at 120 min, 100 µM (UGT1A10)	inhibition at 120 min, 100 µM (UGT1A1)	Structure (SMILES)
-86.4%	14.5%	O=c1c2cc(O)c(O)cc2oc2cc(O)c([C@@H]3O[C@H](CO)[C@@H](O)[C@H](O)[C@H]3O)c(O)c12 [MGF, 1,3,6,7-tetrahydroxyxanthone-C-2-β-D-glucoside]
-272%	50.8%	O=c1c2cc(O)c(O)cc2oc2cc(O)cc(O)c12 [NTR, 1,3,6,7-tetrahydroxyxanthone]

— publication PMC6152678, “In Vitro Comparative Study of the Inhibitory Effects of Mangiferin and Its Aglycone Norathyriol towards UDP-Glucuronosyl Transferase (UGT) Isoforms” (Molecules : A Journal of Synthetic Chemistry and Natural …, 2017)
